Experimental data taken from the NIST ThermoML archive (doi:10.1021/je050231r).
± gives the expanded uncertainty stated by the source. One block for each molecule: values may come before it.

Details: Liquid; for mass density: 293.2 K, 101.33 kPa

mass density: 876.53 ± 0.19 kg/m3
vapor or sublimation pressure (354.4 K): 101.77 ± 5.1 kPa
Compound: c1ccccc1 [benzene]

Compound: Brc1ccccc1 [bromobenzene]
mass density: 1495.23 ± 1.2 kg/m3
vapor or sublimation pressure (429.4 K): 101.76 ± 2.6 kPa

mass density: 1022.27 ± 0.27 kg/m3
vapor or sublimation pressure (358.4 K): 101.94 ± 5.1 kPa
Compound: Fc1ccccc1 [fluorobenzene]

Compound: Cc1ccccc1 [toluene]
mass density: 866.81 ± 0.28 kg/m3
vapor or sublimation pressure (384.9 K): 102.09 ± 5.1 kPa

Compound: BrCCBr [1,2-dibromoethane]
mass density: 2179.24 ± 2.4 kg/m3
vapor or sublimation pressure (404.6 K): 101.81 ± 0.62 kPa
vapor or sublimation pressure (405.4 K): 102.09 ± 0.52 kPa
vapor or sublimation pressure (405.5 K): 102.11 ± 0.52 kPa
vapor or sublimation pressure (405.8 K): 101.86 ± 0.98 kPa
